Experimental data published in patent US8563254B2, “Biomarkers of tumor pharmacodynamic response” (Novartis AG, priority 2009, dated 2013).

What was measured:
Format in all cases: cell-based, human
GTL-16 cells = assay: Multiplexed bead-based 27-plex cytokine panel, GTL-16 culture supernatants; conditions: 48 hr
Experimental: (§1) A malignant melanoma cell line A375 (American Type Culture Collection, Manassas, Va., USA) and gastric cancer cell line, GTL-16 (Prof Silvia Giordano, Institute for Cancer Research and Treatment, Turin, Italy) were cultured in RPMI 1640 supplemented with 10% FBS and 1% penicillin-streptomycin at 37° C. in 5% CO2 (GIBCO reagents, Invitrogen Corporation, Carlsbad, Calif., USA). Cell numbers were determined by ViCell™ XR Cell Viability Analyzer 2.03 (Beckman Coulter, Inc., Fullerton, Calif., USA). Cells were seeded in poly-D-lysine coated plates (BIOCOAT Cell Environments, Becton Dickinson Biosciences, San Jose, Calif., USA).
Human IL-8 levels in cell culture supernatants treated with NVP-AUY922 were initially assessed as part of a multiplexed bead-based cytokine panel (hu 27-plex panel I, Bio-rad Laboratories, Hercules, Calif., USA) with a BioPlex Suspension Array System (Bio-rad). Human IL-8 and mouse KC levels in serum derived from GTL-16 and A375 tumor-bearing mice treated with NVP-AUY922 were measured by single-plex cytokine bead-based assay (Milliplex, Millipore, Billerica, Mass., USA). The BioPlex system uses a liquid suspension array of beads. The beads align in a single file through a flow cell to the detector, where a red classification laser at a wavelength of 635 nm and a green reporter laser at a wavelength of 532 nm are used to identify each bead's spectral address and associated reporter signal, respectively.
In a screen for candidate secreted markers of Hsp90 inhibition, cell culture supernatants were collected from GTL-16 gastric carcinoma and A375 melanoma cells that were washed and treated for 48 hr with 1 μM NVP-AUY922 in fresh culture medium. These samples were analyzed by a multiplexed cytokine bead-based assay that included a panel of 27 human cytokines, the results of which are shown in FIG. 1. […] In addition to this empirical investigation using the bead-based immunoassay panel, in silica data mining was undertaken to identify secreted proteins that were regulated by previously reported Hsp90 client proteins; this investigation pointed to a number of candidates, including IL-8, consistent with the empirical results.

A375 cells [1] = assay: IL-8 ELISA of A375 culture supernatants
Experimental: as §1
Human IL-8 levels in cell culture supernatants from GTL-16 and A375 cells were measured by a sandwich enzyme-linked immunosorbent assay (R&D Systems, Inc., Minneapolis, Minn., USA). Cell culture supernatants were collected from DMSO and NVP-AUY922 treated cells 16, 24, 48 and 72 hr post-treatment and stored at −20° C.
To better characterize the relationship between Hsp90 inhibitor treatment and effects on IL-8 production, GTL-16 and A375 cells were washed and treated for 24 hr with fresh medium containing various concentrations of NVP-AUY922. For this length of treatment time, maximal inhibition of IL-8 accumulation appears to be reached at 0.3 μM as measured by enzyme-linked immunosorbent assay; this equates to 80% and 60% reductions in GTL-16 and A375 cultures, respectively (FIGS. 2A, B).

A375 cells [2] = assay: Quantitative RT-PCR of IL-8 mRNA, A375; conditions: A375, 0.3 μM, 16 hr
Experimental: Total cellular RNA was extracted from the GTL-16 and A375 cell lines using RNeasy mini kit (Qiagen, Inc., Valencia, Calif., USA). Total RNA quantitation was carried out using a RiboGreen assay (Invitrogen Corporation, Carlsbad, Calif., USA). 1 μg of total RNA was reverse transcribed using AMV reverse transcriptase (Reverse Transcription Kit, Promega U.S., Madison, Wis., USA). A 20 μl reaction cocktail was prepared as follows; 1 μg total RNA in 10 μl of RNase, DNase-free H2O, 4 μl of 25 mM MgCl2, 2 μl of 10× reverse transcriptase buffer, 2 μl of 10 mM dNTP's, 1 μl of 500 μg ml^−1 random hexamers, 1.5 μl of 10 μl ml^−1, and 40 U μl^−1 0.5 μl of recombinant RNase Inhibitor. Real time PCR was performed using a 7900HT fast real-time PCR system (Applied Biosystems, Foster City, Calif., USA) using the Power SYBR Green PCR master mix (Applied Biosystems). The primers for IL-8 and GAPDH were: IL-8 sense: 5′-[…]-3′ (SEQ ID NO:3) and IL-8 antisense:
5′-[…]-3′ (SEQ ID NO:4); and GAPDH sense:
5′-[…]-3′ (SEQ ID NO:5), and GAPDH antisense;
5′-[…]-3′. (SEQ ID NO:6) The amplification process involved an initial 5 min denaturing step at 95° C. This was followed by annealing reactions for both IL-8 and GAPDH, of 45 s at 95° C. with 230 s at 68° C. for 34 cycles and 1 min at 95° C. with 1 min at 60° C. and 1 min 72° C. for 30 cycles, respectively. The final extension was 10 min at 72° C. […]

## CCNC(=O)c1noc(-c2cc(C(C)C)c(O)cc2O)c1-c1ccc(CN2CCOCC2)cc1 [NVP-AUY922, 5-(2,4-Dihydroxy-5-isopropyl-phenyl)-4-(4-morhpolin-4-ylmethyl-phenyl)-isoxazole-3-carboxylic acid ethylamide]
GTL-16 cells; GTL-16, 1 μM
  accumulation of FGF basic and MIP-1b: virtually unchanged
  accumulation of IL-1ra, IL-8, IL-17, Eotaxin, GM-CSF, IP-10, PDGF-bb and VEGF: decreased accumulation
  accumulation of IL-15: increased accumulation
GTL-16 cells; GTL-16 culture supernatant, 1 μM, multiplexed assay
  IL-8 accumulation decreased: more than 80%
A375 cells [1]; A375, 0.3 μM
  time within which IL-8 production dramatically declines: ≤ 16 h
A375 cells [1]; A375, 24 hr treatment
  concentration at which maximal inhibition of IL-8 accumulation is reached: 0.3 µM
A375 cells [1]; Homo sapiens, A-375, A375, 0.3 μM, 24 hr, ELISA, read-out: reduction of IL-8 accumulation (maximal inhibition)
  inhibition at 0.3 µM: 60%
A375 cells [2]
  IL-8 mRNA levels lower in treated versus untreated cells: 95%
